Test results: patent publication US7786141B2 (Vertex Pharmaceuticals Incorporated, priority 2004, dated 2010)

Assays:
[1] = target: T1, M1 muscarinic receptor (Homo sapiens, UniProt P11229); experiment: Functional mobilization of intracellular calcium (FLIPR) in M1-CHO cells; format: cell-based; details: Table 4; for Emax: 100% efficacy is the maximum response obtained with the Carbachol control; for M1 Activity: M1 receptor, calcium mobilization (FLIPR)
T1 construct: expressed in transfected cells; host or cells: CHO (M1-CHO)
T1 sequence (P11229 1-460): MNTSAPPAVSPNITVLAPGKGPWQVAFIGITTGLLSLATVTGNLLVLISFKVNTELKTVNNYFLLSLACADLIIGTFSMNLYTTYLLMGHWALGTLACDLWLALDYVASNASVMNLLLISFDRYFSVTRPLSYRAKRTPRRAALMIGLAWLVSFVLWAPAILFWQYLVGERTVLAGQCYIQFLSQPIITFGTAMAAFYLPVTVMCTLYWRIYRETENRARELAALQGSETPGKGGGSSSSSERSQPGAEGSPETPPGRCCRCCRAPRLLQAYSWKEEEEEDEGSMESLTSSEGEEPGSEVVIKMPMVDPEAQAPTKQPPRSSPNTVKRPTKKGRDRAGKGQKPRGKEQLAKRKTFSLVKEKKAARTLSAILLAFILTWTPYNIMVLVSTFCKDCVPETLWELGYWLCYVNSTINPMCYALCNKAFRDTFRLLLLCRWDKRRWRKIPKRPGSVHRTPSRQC
Method in brief: (§1)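 Steps: seed M1- or M4-CHO cells 18-24 hrs ahead; load calcium dye with 1 mM probenecid; add test compound (0.5% DMSO final), either alone for agonism or 15 min before EC80 carbachol for inhibition; record FLIPR fluorescence for 60 sec.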

[2] = target: T2, M4 muscarinic receptor (Homo sapiens, UniProt P08173); experiment: Functional mobilization of intracellular calcium (FLIPR) in M4-CHO cells; format: cell-based; details: Table 4; for Emax: 100% efficacy is the maximum response obtained with the Carbachol control; for M4 Activity: M4 receptor, calcium mobilization (FLIPR)
T2 construct: expressed in transfected cells; host or cells: CHO (M4-CHO)
T2 sequence (P08173 1-479): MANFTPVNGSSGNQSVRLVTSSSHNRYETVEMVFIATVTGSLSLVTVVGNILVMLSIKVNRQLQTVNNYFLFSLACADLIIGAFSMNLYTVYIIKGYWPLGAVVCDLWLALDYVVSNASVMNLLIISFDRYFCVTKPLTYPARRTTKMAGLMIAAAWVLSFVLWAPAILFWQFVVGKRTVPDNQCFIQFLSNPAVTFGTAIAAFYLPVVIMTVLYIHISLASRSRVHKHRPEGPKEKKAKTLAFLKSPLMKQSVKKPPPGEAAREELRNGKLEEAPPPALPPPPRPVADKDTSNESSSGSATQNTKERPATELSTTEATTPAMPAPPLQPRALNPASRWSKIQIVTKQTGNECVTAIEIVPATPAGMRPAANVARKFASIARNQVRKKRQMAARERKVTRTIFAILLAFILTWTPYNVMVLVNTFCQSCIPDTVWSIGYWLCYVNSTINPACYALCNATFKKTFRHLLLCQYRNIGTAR
Method in brief: as §1

CC(=O)NC1CCC2(CCN(CCC3CCN(C(=O)C(C)(C)C)CC3)CC2)c2ccccc21 (stereo not shown) [compound 966]
Emax [1]: 25 to 100% | M1 Activity [1]: xxx (activity was measured to be less than 2.0 μM) | Emax [2]: < 25% | M4 Activity [2]: x (activity was measured to be greater than 5.0 μM)

CCc1nccnc1N1CCC(N2CCC3(CC2)CN(C(=O)N(C)C)c2ccc(F)cc23)CC1 [compound 967]
Emax [1]: 25 to 100% | M1 Activity [1]: xx (activity was measured to be between 2.0 μM and 5.0 μM) | Emax [2]: 25 to 100% | M4 Activity [2]: xx (activity was measured to be between 2.0 μM and 5.0 μM)

CC(=O)N1CC2(CCN(CC3CCC(C)=CC3C)CC2)c2cc(F)ccc21 (stereo not shown) [compound 968]
Emax [1]: < 25% | M1 Activity [1]: x (activity was measured to be greater than 5.0 μM) | Emax [2]: < 25% | M4 Activity [2]: x (activity was measured to be greater than 5.0 μM)

CC(=O)NC1CCC2(CCN(CCC3CCN(S(C)(=O)=O)CC3)CC2)c2ccccc21 (stereo not shown) [compound 969]
Emax [1]: 25 to 100% | M1 Activity [1]: xxx (activity was measured to be less than 2.0 μM) | Emax [2]: < 25% | M4 Activity [2]: x (activity was measured to be greater than 5.0 μM)

CC(=O)N1CC2(CCN(C3CC4CCC(C3)N4C(=O)O[C@@H]3CCOC3)CC2)c2ccccc21 (stereo partly shown) [compound 970]
Emax [1]: 25 to 100% | M1 Activity [1]: xxx (activity was measured to be less than 2.0 μM) | Emax [2]: 25 to 100% | M4 Activity [2]: xxx (activity was measured to be less than 2.0 μM)

CN(C)C(=O)N1CC2(CCN(C3CCN(C(=O)c4cccc(F)c4)CC3)CC2)c2cc(F)ccc21 [compound 972]
Emax [1]: 25 to 100% | M1 Activity [1]: xx (activity was measured to be between 2.0 μM and 5.0 μM) | Emax [2]: < 25% | M4 Activity [2]: x (activity was measured to be greater than 5.0 μM)

CC(=O)N1CC2(CCN(C3CCN(c4nncs4)CC3)CC2)c2ccccc21 [compound 973]
Emax [1]: 25 to 100% | M1 Activity [1]: x (activity was measured to be greater than 5.0 μM) | Emax [2]: < 25% | M4 Activity [2]: x (activity was measured to be greater than 5.0 μM)

CCOC(=O)N1CC[C@@H](CN2CCC3(CC2)CN(C(=O)N(C)C)c2ccc(F)cc23)C1 [compound 974]
Emax [1]: 25 to 100% | M1 Activity [1]: xxx (activity was measured to be less than 2.0 μM) | Emax [2]: 25 to 100% | M4 Activity [2]: xxx (activity was measured to be less than 2.0 μM)

CC(=O)N1CC2(CCN(C3CCN(c4cncc(C5=CCCC5)n4)CC3)CC2)c2ccccc21 [compound 975]
Emax [1]: < 25% | M1 Activity [1]: x (activity was measured to be greater than 5.0 μM) | Emax [2]: < 25% | M4 Activity [2]: x (activity was measured to be greater than 5.0 μM)

CC(=O)N1CC2(CCN(C3CCN(c4nccs4)CC3)CC2)c2cc(F)ccc21 [compound 976]
Emax [1]: 25 to 100% | M1 Activity [1]: xxx (activity was measured to be less than 2.0 μM) | Emax [2]: 25 to 100% | M4 Activity [2]: xxx (activity was measured to be less than 2.0 μM)

CC(=O)NC1CC2(CCN(C3CCN(C(=O)c4cccc(C(F)(F)F)c4)CC3)CC2)c2ccccc21 (stereo not shown) [compound 978]
Emax [1]: < 25% | M1 Activity [1]: x (activity was measured to be greater than 5.0 μM) | Emax [2]: < 25% | M4 Activity [2]: x (activity was measured to be greater than 5.0 μM)

O=C(N[C@H]1CC2(CCN(C3CC4CC[C@@H]3C4)CC2)c2ccccc21)N1CCOCC1 (stereo partly shown) [compound 979]
Emax [1]: 25 to 100% | M1 Activity [1]: x (activity was measured to be greater than 5.0 μM) | Emax [2]: 25 to 100% | M4 Activity [2]: xxx (activity was measured to be less than 2.0 μM)

CCOC(=O)N1C2CCC1CC(N1CCC3(CC(=O)c4cc(F)ccc43)C1)C2 (stereo not shown) [compound 980]
Emax [1]: > 100% | M1 Activity [1]: xxx (activity was measured to be less than 2.0 μM) | Emax [2]: 25 to 100% | M4 Activity [2]: xxx (activity was measured to be less than 2.0 μM)

CCCC#CCOC(=O)N1CC[C@H](CN2CCC3(CC2)CN(C(=O)N(C)C)c2ccc(F)cc23)C1 [compound 981]
Emax [1]: 25 to 100% | M1 Activity [1]: xxx (activity was measured to be less than 2.0 μM) | Emax [2]: 25 to 100% | M4 Activity [2]: xxx (activity was measured to be less than 2.0 μM)

Cc1ccc2c(c1)C1(CCN(C3CC4CCC3C4)CC1)CN2C(=O)c1snnc1C (stereo not shown) [compound 982]
Emax [1]: < 25% | M1 Activity [1]: x (activity was measured to be greater than 5.0 μM) | Emax [2]: < 25% | M4 Activity [2]: x (activity was measured to be greater than 5.0 μM)

O=C1CC2(CCN(C3CCCCCC3)CC2)c2cc(Cl)ccc21 [compound 983]
Emax [1]: 25 to 100% | M1 Activity [1]: xxx (activity was measured to be less than 2.0 μM) | Emax [2]: 25 to 100% | M4 Activity [2]: xxx (activity was measured to be less than 2.0 μM)

CCCN1CC2(CCN(C[C@H]3C[C@H]4C=CC3C4)CC2)c2cc(F)ccc21 [compound 984]
Emax [1]: 25 to 100% | M1 Activity [1]: xx (activity was measured to be between 2.0 μM and 5.0 μM) | Emax [2]: 25 to 100% | M4 Activity [2]: xxx (activity was measured to be less than 2.0 μM)

CC(=O)NC1CC2(CCN(CC3CC4C=CC3C4)CC2)c2ccc(C)cc21 (stereo not shown) [compound 985]
Emax [1]: 25 to 100% | M1 Activity [1]: x (activity was measured to be greater than 5.0 μM) | Emax [2]: 25 to 100% | M4 Activity [2]: xx (activity was measured to be between 2.0 μM and 5.0 μM)

CCOC(=O)N1CCCC(N2CCCC3(CC2)CN(C(C)=O)c2ccc(F)cc23)CC1 (stereo not shown) [compound 986]
Emax [1]: 25 to 100% | M1 Activity [1]: xxx (activity was measured to be less than 2.0 μM) | Emax [2]: 25 to 100% | M4 Activity [2]: xxx (activity was measured to be less than 2.0 μM)

CC(CF)OC(=O)N1CCC(N2CCC3(CC2)CN(C(=O)N(C)C)c2ccc(F)cc23)CC1 (stereo not shown) [compound 987]
Emax [1]: 25 to 100% | M1 Activity [1]: xxx (activity was measured to be less than 2.0 μM) | Emax [2]: 25 to 100% | M4 Activity [2]: xxx (activity was measured to be less than 2.0 μM)

CN(C)C(=O)N1CC2(CCN(C3CCN(C(=O)c4ccnnc4)CC3)CC2)c2cc(F)ccc21 [compound 988]
Emax [1]: 25 to 100% | M1 Activity [1]: xxx (activity was measured to be less than 2.0 μM) | Emax [2]: 25 to 100% | M4 Activity [2]: xxx (activity was measured to be less than 2.0 μM)

C#CCCOC(=O)N1CCC(N2CCC3(CC2)CN(C(C)=O)c2ccccc23)CC1 [compound 989]
Emax [1]: 25 to 100% | M1 Activity [1]: xxx (activity was measured to be less than 2.0 μM) | Emax [2]: < 25% | M4 Activity [2]: x (activity was measured to be greater than 5.0 μM)

COc1ccc(N2CCC(N3CCC4(CC3)CN(C(=O)N(C)C)c3ccc(F)cc34)CC2)cc1 [compound 990]
Emax [1]: 25 to 100% | M1 Activity [1]: xx (activity was measured to be between 2.0 μM and 5.0 μM) | Emax [2]: 25 to 100% | M4 Activity [2]: x (activity was measured to be greater than 5.0 μM)

CCOC(=O)N1CCC(N2CCC3(CC2)CN(c2ccccc2F)c2ccc(F)cc23)CC1 [compound 991]
Emax [1]: 25 to 100% | M1 Activity [1]: xxx (activity was measured to be less than 2.0 μM) | Emax [2]: 25 to 100% | M4 Activity [2]: xxx (activity was measured to be less than 2.0 μM)

CCOC(=O)N1CCC(N2CCC3(CC2)CN(C(C)=O)c2c(-c4ccc(F)cc4)cccc23)CC1 [compound 992]
Emax [1]: 25 to 100% | M1 Activity [1]: x (activity was measured to be greater than 5.0 μM) | Emax [2]: 25 to 100% | M4 Activity [2]: x (activity was measured to be greater than 5.0 μM)

CC(=O)N[C@H]1CCC2(CCN(CC3CCCC3)CC2)c2ccccc21 [compound 993]
Emax [1]: 25 to 100% | M1 Activity [1]: xxx (activity was measured to be less than 2.0 μM) | Emax [2]: 25 to 100% | M4 Activity [2]: xxx (activity was measured to be less than 2.0 μM)

CCOC(=O)N1CCC(CN2CCC3(CC2)CN(C(C)=O)c2ccc(C(F)(F)F)cc23)CC1 [compound 994]
Emax [1]: 25 to 100% | M1 Activity [1]: xxx (activity was measured to be less than 2.0 μM) | Emax [2]: 25 to 100% | M4 Activity [2]: xxx (activity was measured to be less than 2.0 μM)

CCOC(=O)N1CCC(N2CCC3(CC2)CN(C(C)=O)c2c(Br)cccc23)CC1 [compound 995]
Emax [1]: 25 to 100% | M1 Activity [1]: x (activity was measured to be greater than 5.0 μM) | Emax [2]: 25 to 100% | M4 Activity [2]: xx (activity was measured to be between 2.0 μM and 5.0 μM)
